Square brackets hold non-standard residues; d marks the D form. Ends that are not written are not given here. Peptide text beside a SMILES is read from it. pGlu = O=C1CC[C@@H](C(=O)O)N1
Legend:
ACE [1] = details: cited from earlier work
ACE [2] = molecular target: T1, ACE (Oryctolagus cuniculus, UniProt P12822); details: cited from earlier work
T1 sequence (P12822 34-1310): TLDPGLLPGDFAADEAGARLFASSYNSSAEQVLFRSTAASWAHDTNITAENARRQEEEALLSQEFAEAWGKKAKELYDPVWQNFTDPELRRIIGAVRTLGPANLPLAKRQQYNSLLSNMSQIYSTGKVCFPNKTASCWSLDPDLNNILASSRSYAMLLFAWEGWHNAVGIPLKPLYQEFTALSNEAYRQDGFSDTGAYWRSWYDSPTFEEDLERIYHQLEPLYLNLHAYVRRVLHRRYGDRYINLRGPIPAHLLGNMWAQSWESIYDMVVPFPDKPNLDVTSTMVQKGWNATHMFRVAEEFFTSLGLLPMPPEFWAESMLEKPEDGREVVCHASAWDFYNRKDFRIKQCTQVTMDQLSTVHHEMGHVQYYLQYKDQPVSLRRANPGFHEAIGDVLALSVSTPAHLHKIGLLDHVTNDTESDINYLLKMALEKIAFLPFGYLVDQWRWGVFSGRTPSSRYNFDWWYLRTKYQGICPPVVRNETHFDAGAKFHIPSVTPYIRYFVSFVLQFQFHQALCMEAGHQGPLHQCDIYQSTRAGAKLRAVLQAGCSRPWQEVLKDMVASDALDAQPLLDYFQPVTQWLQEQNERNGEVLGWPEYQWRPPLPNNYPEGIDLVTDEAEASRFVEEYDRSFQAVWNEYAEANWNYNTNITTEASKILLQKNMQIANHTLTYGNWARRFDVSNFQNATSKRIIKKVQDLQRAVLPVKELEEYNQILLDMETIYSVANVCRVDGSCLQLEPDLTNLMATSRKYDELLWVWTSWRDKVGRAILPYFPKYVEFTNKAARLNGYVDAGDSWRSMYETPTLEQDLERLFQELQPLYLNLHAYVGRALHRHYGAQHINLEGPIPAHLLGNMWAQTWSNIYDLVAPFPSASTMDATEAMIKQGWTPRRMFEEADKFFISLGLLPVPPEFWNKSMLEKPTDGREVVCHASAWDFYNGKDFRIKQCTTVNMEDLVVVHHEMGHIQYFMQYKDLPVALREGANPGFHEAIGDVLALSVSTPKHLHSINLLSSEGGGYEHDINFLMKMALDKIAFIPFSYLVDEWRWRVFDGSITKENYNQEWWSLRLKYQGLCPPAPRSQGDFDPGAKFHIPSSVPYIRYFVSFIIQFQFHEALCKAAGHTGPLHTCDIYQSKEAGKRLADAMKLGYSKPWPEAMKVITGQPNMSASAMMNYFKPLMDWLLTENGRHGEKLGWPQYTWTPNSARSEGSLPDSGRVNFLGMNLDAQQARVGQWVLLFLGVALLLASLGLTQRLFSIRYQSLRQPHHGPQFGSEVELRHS

ACE [3] = assay: Sulfate and chloride effects on ACE catalysed hydrolysis (general description); type: biochemical; details: 0.05 M Hepes, pH 8.0
Source text: An assay for ACE, using HipHisLeu as substrate, is herewith described. The assay is more sensitive than any heretofore disclosed using HipHisLeu as substrate. Maximum sensitivity is achieved by the inclusion of sulfate ions, preferably as sodium sulfate, in the reaction mixture. When 0.1 M NaCl is present in the reaction mixture, sulfate ions are stimulatory from 0.1 M to at least 1.1 M. Maximum stimulation occurs in the range from 0.75 M to 1.1 M Na2 SO4.
(§1) An even more sensitive assay for ACE activity has been developed using the novel compound ^3 H-benzoylPheAlaPro as substrate. This new substrate can be used to assay ACE in human urine in incubations as short as 15 minutes. The response of this substrate to ions is strikingly different from the response of HipHisLeu. […] This difficulty has been solved by the proper choice of extracting solvent. While a variety of organic solvents may be suitable for the extraction step, it is preferred to employ toluene. Approximately 88% of ^3 H-benzoylPhe enters the toluene phase while only 6% of the unhydrolyzed substrate enters the toluene phase, when toluene and the acidified reaction mixture are in approximately equal volumes at room temperatures.
The enzyme is active over a broad pH range with a maximum around pH 8.0, but is at least about 50% active in the range pH 7.0-pH 8.8, for both HipHisLeu and benzoylPheAlaPro. Although the enzyme is active in a variety of buffer systems known in the art, it is preferred for convenience, when using benzoylPheAlaPro as substrate, to conduct the assays in 0.05 M Hepes buffer, pH 8.0 containing 0.15 M sodium chloride. Detailed protocols for carrying out the assay are given in the examples. […] The preferred concentration range is 1×10^-9 M to 7×10^- 5 M.

Guinea pig serum ACE = molecular target: T2, Guinea pig serum ACE (Cavia porcellus, UniProt H0UWL7); assay: Kinetics of benzoyl-Phe-Ala-Pro hydrolysis; details: read-out: apparent Km; 0.05 M Hepes, pH 8.0, 0.15 M NaCl; Lineweaver and Burke plot
T2 sequence (H0UWL7 33-1234): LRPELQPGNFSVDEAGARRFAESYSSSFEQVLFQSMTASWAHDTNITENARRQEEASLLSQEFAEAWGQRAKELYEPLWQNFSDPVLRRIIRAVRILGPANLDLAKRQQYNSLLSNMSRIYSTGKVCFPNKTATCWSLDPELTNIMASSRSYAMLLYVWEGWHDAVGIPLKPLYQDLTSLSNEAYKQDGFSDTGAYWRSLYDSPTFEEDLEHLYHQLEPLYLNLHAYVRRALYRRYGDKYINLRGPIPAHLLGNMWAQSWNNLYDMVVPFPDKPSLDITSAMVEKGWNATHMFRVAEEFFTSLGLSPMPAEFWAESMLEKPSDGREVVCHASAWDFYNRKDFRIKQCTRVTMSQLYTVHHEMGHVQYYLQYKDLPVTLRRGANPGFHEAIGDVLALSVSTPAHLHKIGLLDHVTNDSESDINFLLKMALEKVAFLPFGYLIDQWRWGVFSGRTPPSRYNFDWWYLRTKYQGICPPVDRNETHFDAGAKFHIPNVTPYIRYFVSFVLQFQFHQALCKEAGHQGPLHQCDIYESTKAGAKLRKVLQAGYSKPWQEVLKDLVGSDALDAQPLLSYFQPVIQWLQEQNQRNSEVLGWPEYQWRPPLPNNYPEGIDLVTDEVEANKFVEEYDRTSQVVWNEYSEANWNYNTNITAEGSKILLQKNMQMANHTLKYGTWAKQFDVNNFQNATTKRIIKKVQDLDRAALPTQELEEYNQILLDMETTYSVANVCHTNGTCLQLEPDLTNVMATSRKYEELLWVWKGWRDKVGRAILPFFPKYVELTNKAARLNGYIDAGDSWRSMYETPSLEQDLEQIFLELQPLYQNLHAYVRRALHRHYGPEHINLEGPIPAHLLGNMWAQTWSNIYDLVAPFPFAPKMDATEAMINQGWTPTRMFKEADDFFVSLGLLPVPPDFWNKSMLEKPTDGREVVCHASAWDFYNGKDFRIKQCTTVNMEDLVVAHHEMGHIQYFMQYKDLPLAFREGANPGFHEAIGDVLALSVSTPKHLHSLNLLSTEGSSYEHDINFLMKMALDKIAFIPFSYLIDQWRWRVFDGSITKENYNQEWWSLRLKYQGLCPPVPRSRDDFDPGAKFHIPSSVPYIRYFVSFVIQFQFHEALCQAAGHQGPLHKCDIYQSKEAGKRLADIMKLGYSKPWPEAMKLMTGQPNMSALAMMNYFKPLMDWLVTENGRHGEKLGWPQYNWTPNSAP
Procedure: Kinetics of Benzoyl-Phe-Ala-Pro Hydrolysis
The apparent Km for the ACE catalyzed hydrolysis of benzoyl-Phe-Ala-Pro was measured in the following manner. […] Guinea pig serum was diluted 1:1000 to provide the enzyme. A mixture of 50 μl diluted serum and 50 μl of substrate, diluted in the reaction buffer to provide the appropriate substrate concentration for each experiment, was incubated at 37° C. for 10 minutes. At the end of the incubation, 1.0 ml of 0.1 M HCl was added to stop the reaction. The reaction mixture was then extracted with 1.0 ml toluene, and a 0.5 ml aliquot of the toluene phase was counted in a scintillation counter.

[4] = Extraction from the acidified reaction mixture into organic solvent; type: physicochemical
Procedure: as §1

ACE [5] = molecular target: ACE (Homo sapiens, UniProt P12821); assay: Comparison of sensitivity of ACE radioassays; type: biochemical
Sequence of ACE (Homo sapiens, UniProt P12821) (P12821 30-1306, species assumed): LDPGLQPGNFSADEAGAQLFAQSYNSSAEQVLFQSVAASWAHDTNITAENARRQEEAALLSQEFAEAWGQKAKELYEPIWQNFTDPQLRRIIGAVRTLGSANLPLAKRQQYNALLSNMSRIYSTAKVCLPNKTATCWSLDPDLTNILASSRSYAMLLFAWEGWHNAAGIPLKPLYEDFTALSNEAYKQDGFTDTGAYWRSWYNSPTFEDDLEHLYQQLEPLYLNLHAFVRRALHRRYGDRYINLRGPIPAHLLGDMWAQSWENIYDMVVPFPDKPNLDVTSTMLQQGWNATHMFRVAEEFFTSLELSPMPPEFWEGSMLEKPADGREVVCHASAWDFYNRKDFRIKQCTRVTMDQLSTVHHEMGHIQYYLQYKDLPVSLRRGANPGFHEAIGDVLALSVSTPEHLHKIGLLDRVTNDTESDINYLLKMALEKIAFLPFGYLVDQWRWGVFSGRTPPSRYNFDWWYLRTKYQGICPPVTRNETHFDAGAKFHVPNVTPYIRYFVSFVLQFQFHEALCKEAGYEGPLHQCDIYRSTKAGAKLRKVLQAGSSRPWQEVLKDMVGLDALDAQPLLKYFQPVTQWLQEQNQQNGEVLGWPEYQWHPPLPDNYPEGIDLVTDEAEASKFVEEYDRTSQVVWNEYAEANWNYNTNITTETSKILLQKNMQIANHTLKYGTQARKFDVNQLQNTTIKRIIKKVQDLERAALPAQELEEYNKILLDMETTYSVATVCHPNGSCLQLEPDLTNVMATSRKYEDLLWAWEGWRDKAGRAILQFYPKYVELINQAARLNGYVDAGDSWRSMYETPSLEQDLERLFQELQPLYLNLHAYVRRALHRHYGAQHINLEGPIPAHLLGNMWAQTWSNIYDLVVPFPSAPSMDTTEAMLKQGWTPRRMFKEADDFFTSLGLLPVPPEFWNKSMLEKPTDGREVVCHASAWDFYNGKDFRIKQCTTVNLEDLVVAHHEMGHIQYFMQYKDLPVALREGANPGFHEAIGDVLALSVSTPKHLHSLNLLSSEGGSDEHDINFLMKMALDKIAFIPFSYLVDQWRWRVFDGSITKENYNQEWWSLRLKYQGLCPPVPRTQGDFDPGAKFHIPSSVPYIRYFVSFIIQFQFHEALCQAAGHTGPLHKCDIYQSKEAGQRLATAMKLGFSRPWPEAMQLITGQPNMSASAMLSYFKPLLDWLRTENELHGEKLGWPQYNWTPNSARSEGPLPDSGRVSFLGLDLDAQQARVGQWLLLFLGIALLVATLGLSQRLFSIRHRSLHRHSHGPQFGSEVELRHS
Source text: A comparison of the sensitivity of the disclosed assay methods with each other and with prior art assays may be made by considering assays which depend upon measuring the radioactivity of the remnant reaction product. A prior art assay of this type, using ^3 H-HipGlyGly as substrate has been described (Ryan and Chung, supra). Of the two assays disclosed herein, the sulfate stimulated hydrolysis of ^3 H-HipHisLeu is approximately 20 times more sensitive, and the ^3 H-benzoylPheAlaPro assay is about 10 times more sensitive still. The latter is therefore approximately 200 times more sensitive than the assay using ^3 H-HipGlyGly.

Molecule: NC(N)=NCCC[C@H](NC(=O)[C@H](Cc1ccccc1)NC(=O)[C@@H]1CCCN1C(=O)[C@H](CO)NC(=O)[C@H](Cc1ccccc1)NC(=O)CNC(=O)[C@@H]1CCCN1C(=O)[C@@H]1CCCN1C(=O)[C@@H](N)CCCN=C(N)N)C(=O)O [bradykinin, ArgProProGlyPheSerProPheArg] (H-RPPGFSPFR-OH)
- competitive substrate of ACE (ACE [1]): competitive substrates

Molecule: <GluLysTrpAlaPro ([pGlu]KWAP) [BPP5a]
- competitive substrate of ACE (ACE [1]): competitive substrates
- substrate for the enzyme (ACE [2]): could serve as a substrate for the enzyme
- cleavage in the presence of chloride (ACE [2]; vs. buffer of undisclosed composition): proceeded more slowly in the presence of chloride

Molecule: ^3 H-benzoylPheAlaPro
- hydrolysis in the absence of any added salt (ACE [3]): ACE will hydrolyze
- Km (Guinea pig serum ACE): 14 µM
- extraction into ethyl acetate ([4]; acidified with dilute hydrochloric acid): extracted almost quantitatively into ethyl acetate
- fraction entering the toluene phase ([4]; toluene and acidified reaction mixture in approximately equal volumes, room temperature): 6%
- sensitivity relative to the sulfate-stimulated HipHisLeu assay (ACE [5]): about 10 times
- sensitivity relative to the assay using ^3 H-HipGlyGly (ACE [5]; radioactivity of remnant product, HipHisLeu assay sulfate stimulated): approximately 200 times
